From patent US20190053489A1, “ANTIMICROBIAL COMPOSITION” (NATIONAL UNIVERSITY CORPORATION TOKYO MEDICAL AND DENTAL …, priority 2016, published 2019)

Assays:
MRSA [1] = details: reported by AOKI and KASHIWAGI; cited from earlier work
MRSA IID 1677 [2] = experiment: Proliferation suppression against MRSA in a diluted medium (OD600); assay type: cell-based, Methicillin-Resistant Staphylococcus Aureus (MRSA); details: diluted 1/2.5 LB medium, 37° C., OD 600 nm; complex 0.001%, lysozyme, chitosan and each of mixture 0.0005%; FIG. 1
Procedure: This test employed MRSA IID 1677, and this microbe strain was cultured in a normal broth medium at 37° C. for 20 hours. The cultured microbial solution was collected by centrifugation (3000 rpm, 10 minutes), suspended with sterilized water, and then diluted with sterilized water so that the optical density would satisfy OD600=1.0. The resultant was diluted 2000 times (corresponding to 10^6 CFU/ml) to prepare a reaction microbial solution.
Each of the LB test medium samples was added with 100 μl of reaction microbial solution and was shake cultured under the condition of 37° C. for 48 hours. Here, the LB test medium samples were prepared using 10 ml of 1/2.5 LB medium added with
(1) 10 ml of sterilized water, (2) 10 ml of the lysozyme-chitosan complex with a concentration of 0.002% (the concentration after addition was 0.001%), (3) 10 ml of lysozyme alone with a concentration of 0.001% (the concentration after addition was 0.0005%), (4) 10 ml of chitosan alone with a concentration of 0.001% (the concentration after addition was 0.0005%), and (5) 10 ml of the mixture of lysozyme and chitosan with a concentration of 0.001% (the concentration of each after addition was 0.0005%).
After that, 3 ml was extracted at time intervals (0, 1, and 2 days), and the optical density was measured at an absorption wavelength of 600 nm. […]

[3] = tested on: Micrococcus luteus bacteria; experiment: Heat resistance evaluation by bacteriolytic test; assay type: physicochemical; details: 80° C. for 2 hours; ΔOD at 10 minutes with vs without heating; complex 5%, lysozyme 2.5% aqueous solution; FIG. 6(D)
Procedure: This test is a bacteriolytic test using Micrococcus luteus bacteria being lysozyme-sensitive bacteria. Note that the bacteriolytic activity is an activity specific to lysozyme. Lysozyme is a protein relatively stable against heat. However, it is known that this activity generally decreases considerably for lysozyme heated at 80° C. for 30 minutes.
This test employed an aqueous solution of the lysozyme-chitosan complex with a concentration of 5%, an aqueous solution of lysozyme with a concentration of 2.5%, and an aqueous solution of the mixture of lysozyme and chitosan with a concentration of […]. In addition, Micrococcus luteus bacteria manufactured by Wako Pure Chemical Industries, Ltd. were used as the use bacteria.
First, 1 g of Micrococcus luteus bacteria was weighed on the day before the test, added to 100 ml of physiological saline, and stirred overnight at 4° C. […]
In an optical density meter, 2800 μl of the test microbial solution was set to record OD (0-1) immediately before the addition of the sample. […] Since OD increased here, the highest value OD (0-2) was recorded.
Timer measurement was started after the addition of the sample to record OD at the time of 2, 4, 6, 8, and 10 minutes passed. Each test was carried out twice, and the average was calculated.
With OD for (0-2) being OD at the time of the start, Δoptical density (AOD) at each point was calculated. […]

MRSA IID 1677 [4] = experiment: Proliferation suppression against MRSA in a standard medium (colony count method); assay type: cell-based, Methicillin-Resistant Staphylococcus Aureus (MRSA); details: standard TSB medium with phosphate buffer pH 7.0; complex 0.2%, lysozyme, chitosan, each of mixture 0.1%; FIG. 7
Procedure: This test employed MRSA IID 1677, and this microbe strain was inoculated in 20 ml of a normal broth medium (manufactured by Eiken Chemical Co., Ltd., ‘Eiken’) for overnight shake culture at 37° C. The cultured microbial solution was collected by centrifugation (3000 rpm, 10 minutes), suspended with sterilized water, and then diluted with sterilized water so that the optical density would satisfy OD600=1.0. The resultant was diluted 2000 times (corresponding to 10^6 CFU/ml) to prepare a reaction microbial solution.
Here, the TSB test medium samples were prepared using 10 ml of TSB medium (BD BBL™) added with 200 μl of 1 M phosphate buffer (pH 7.0), followed by further addition of
(1) 10 ml of sterilized water, ([…]), (3) 10 ml of lysozyme alone with a concentration of 0.2% (the concentration after addition was 0.1%), (4) 10 ml of chitosan alone with a concentration of 0.2% (the concentration after addition was 0.1%), and (5) 10 ml of the mixture of lysozyme and chitosan with a concentration of 0.2% (the concentration of each after addition was 0.1%).
After that, 100 μl was extracted and seeded on the MH agar medium, and the number of colonies produced was observed (colony count method). […] Note that the results of FIG. 7 are each the average value of the values obtained by carrying out the colony count method three times.
Note that the results of FIG. 8 are each the average value obtained with two replicate samples.

MRSA [5] = experiment: Observation of morphological change in MRSA by electron microscope; assay type: cell-based, Methicillin-Resistant Staphylococcus Aureus (MRSA); details: complex 0.1% by mass, lysozyme 0.05%, chitosan 0.05%, mixture each 0.05%; FIG. 16
Procedure: First, the morphological change in MRSA was observed by using a scanning electron microscope. This observation with a scanning electron microscope was carried out as follows: osmium coating (4 nm) was performed as the conductive treatment, and a low-acceleration ultra-high resolution scanning electron microscope (SU 9000 manufactured by Hitachi High-Technologies Corporation (accelerating voltage: 1 kV)) was used. In addition, the samples were MRSA added with physiological saline and MRSA added with a lysozyme-chitosan complex with a concentration of 0.2% by mass.
(§1) Next, the morphological change in MRSA was observed by using a transmission electron microscope. This observation with a transmission electron microscope was carried out as follows: the sample was sliced in 50 nm with a diamond knife as the pretreatment and was stained with uranium acetate and lead citrate, and a transmission electron microscope (JEM-1400 manufactured by JEOL Ltd.) was used. In addition, the samples were MRSA added with physiological saline and MRSA added with a lysozyme-chitosan complex with a concentration of 0.2% by mass.
(§2) Observation was carried out with a scanning electron microscope for the morphological changes in MRSA and pseudomonas aeruginosa treated with the lysozyme-chitosan complex, lysozyme alone, chitosan alone, and the mixture of lysozyme and chitosan (treatment time: 2 hours). This observation with a scanning electron microscope was carried out in the same manner as Example 8 described above: osmium coating (4 nm) was performed as the conductive treatment, and a low-acceleration ultra-high resolution scanning electron microscope (SU 9000 manufactured by Hitachi High-Technologies Corporation (accelerating voltage: 1 kV)) was used. In addition, the samples were MRSA or pseudomonas aeruginosa added with physiological saline, a lysozyme-chitosan complex with a concentration of 0.1% by mass, lysozyme of 0.05% by mass, chitosan of 0.05% by mass, and a mixture of lysozyme and chitosan, each with 0.05% by mass.

pseudomonas aeruginosa = experiment: Observation of morphological change in pseudomonas aeruginosa by electron microscope; assay type: cell-based; details: complex 0.1% by mass, lysozyme 0.05%, chitosan 0.05%, mixture each 0.05%; FIG. 17
Procedure: as §1
Note that the morphological change in the case of adding the lysozyme-chitosan complex to pseudomonas aeruginosa was also observed using a transmission electron microscope in the same manner as above. […] In other words, the lysozyme-chitosan complex also has a resistant microbe inactivation effect for pseudomonas aeruginosa.
as §2

Row | Compound | generation at which a resistant microbe is observed to produce (MRSA [1]) | proliferation suppression effect against MRSA for 48 hours (MRSA IID 1677 [2]) | residual activity (bacteriolytic) after heating treatment [3] [%] | proliferation suppression effect against MRSA (ratio of colonies produced 6 hours later to control) (MRSA IID 1677 [4]) | morphological change in MRSA, scanning electron microscope, treatment time 2 hours (MRSA [5]) | morphological change in pseudomonas aeruginosa, scanning electron microscope, treatment time 2 hours (pseudomonas aeruginosa)
1 | CN(C)c1ccc(O)c2c1C[C@H]1C[C@H]3[C@H](N(C)C)C(O)=C(C(N)=O)C(=O)[C@@]3(O)C(O)=C1C2=O [minomycin] | sixth generation | – | – | – | – | –
2 | gentamicin | third generation | – | – | – | – | –
3 | lysozyme [lysozyme alone, reference compound] | – | observed to some extent | 73.3 | almost no proliferation suppression effect | no significant morphological change was observed | no significant morphological change was observed
